Paper PMC4890114, “Intracellular quantitative detection of human thymidylate synthase engagement with an unconventional inhibitor using tetracysteine-diarsenical-probe technology” (Scientific Reports, 2016)

Key:
[1] = tested on: TC-hTS in HEK293T cell lysates; test: FlAsH emission in cell lysates; format: binding, human; settings: excitation 480 nm
Experimental: HEK293T cells (10 × 10^6) were plated into 150-mm dishes (6 dishes were used for each condition) and transfected the following day with 25 μg of pcDNA-TS or pcDNA-TS-TC using Lipofectamine™ LTX Transfection Reagent; cells were collected 48 h post-transfection in 15-ml tubes and washed twice with 4 °C cold PBS for spectrofluorometric analysis. […]
UV-visible absorption measurements were performed with a Cary 100 Varian spectrophotometer. Fluorescence measurements were carried out with a Horiba Fluoromax-3 spectrofluorometer. […] The fluorescein, hTS dimer and LR-h concentrations were determined spectrophotometrically using the following extinction coefficients: εmax (fluorescein) = 79000 M^−1 cm^−1, ε280 (hTS) = 89000 M^−1 cm^−1, ε280 (fluorescein) = 30000 M^−1 cm^−1,[28] and ε404 (LR-h) = 35000 M^−1 cm^−1, determined ad hoc for this work. The h (420 nm) and F (522 nm) emissions were measured by excitation at 370 or 380 nm. The F emission values were analysed according to the Scatchard method as functions of the LR-h concentration. The amount measured before LR-h addition and due to the direct excitation of F at 370 nm was subtracted from the intensity measured at 522 nm. […] Similar experiments were performed in 800 μl of the lysate of 60 × 10^6 HEK cells to which hTS-F was added to a concentration of 2.5 μM (determined spectrophotometrically). […]

[2] = tested on: TC-hTS-transfected HEK293T cells; test: FlAsH-EDT2 staining and confocal imaging of transfected HEK293T cells; format: cell-based, human; settings: HEK293T transfected with empty vector, hTS or TC-hTS; 0.5 μM FlAsH, 30 min; confocal microscopy
Experimental: HEK293T cells (3 × 10^4) were plated into 6-well microslides pre-coated with 0.01% (w/v) poly-L lysine and transfected the following day with 2.5 μg of DNA using Lipofectamine™ LTX Transfection Reagent. After 24 h, cells were labelled for 30 min with 12.5 μM 1,2-ethanedithiol (EDT) and 0.5 μM FlAsH (Life Technologies) in HBSS and then washed twice for 15 min in 150 μM 2,3-dimercaptopropanol (BAL) in HBSS. Cells were fixed with 4% (w/v) paraformaldehyde for 15 min at RT and then imaged using an inverted Leica TCS SP2 confocal microscope interfaced with an Ar Laser (488 nm/20 mW), equipped with AOBS and operated at a magnification of 63x (HCX PL APO 63x/1.40 - oil - Lambda blue correction). Images were processed using LCS Lite (Leica Microsystems, Heidelberg).

[3] = complexes of FlAsH with some dodecapeptides including CCPGCC; 'as low as'; read-out: apparent dissociation constant; cited from earlier work
Source text: According to a strategy devised by Tsien and co-workers, some fluorogenic biarsenicals can covalently bind proteins that contain a tetracysteine motif, CCXXCC, thereby strongly enhancing their emission quantum yield and making such tetracysteine-containing proteins observable within cells. The CCPGCC sequence features a hairpin conformation that optimizes the covalent binding of each As atom of the probe to the S atoms of two cysteine units. Apparent dissociation constants as low as 4 pM have been measured for complexes formed between the fluorescein diarsenical probe FlAsH and some do ...

[4] = biological target: T1, human thymidylate synthase (hTS) (Homo sapiens, UniProt P04818); test: Kinetic characterization of the hTS enzyme; format: biochemical; settings: mTHF 3.50-69.20 μM; enzyme 0.30 μM, dUMP 120 μM; 340 nm; triplicate
T1 construct: inferred from the nickel-resin purification and the pQE80L vector; made in house; host or cells: E. coli DH5α
Experimental: The enzyme reaction was started when dUMP was added to the reaction mixture. […] For each single determination assay, the experimental data were analysed in triplicate with a p-value < 0.005 representing statistical significance.

**Q.** For O=C(O)c1ccccc1-c1c2ccc(=O)c([As]3SCCS3)c-2oc2c([As]3SCCS3)c(O)ccc12 [FlAsH], which “FlAsH emission, TC-hTS cell lysate versus hTS cell lysate” value ([1]; after fourth addition, total FlAsH 0.6 μM) is on record?
**A.** 2.5 times

**Q.** What about the “duration of FlAsH emission increase after addition of the probe” value ([1]; printed for the hTS-expressing cells) of the same molecule?
**A.** approximately forty

**Q.** What about the green fluorescence enhancement [2] of the same molecule?
**A.** green fluorescence enhancement only in TC-hTS-transfected cells

**Q.** What about the Kd [3] of the same molecule?
**A.** ≥ 4 pM

**Q.** With Nc1nc2c(c(=O)[nH]1)N1CN(c3ccc(C(=O)N[C@@H](CCC(=O)O)C(=O)O)cc3)CC1CN2 (some centres unmarked) [mTHF, 5,10-methylenetetrahydrofolate] as the molecule, how does the Km [4] read?
**A.** 5.87 µM
